Laboratory results published in US20250186540A1, “VIPR2 ANTAGONIST PEPTIDE FOR SUPPRESSING CANCER METASTASIS” (ICHIMARU PHARCOS CO., LTD., priority 2022, published 2025).
Positions of bridges follow the written chain, without caps; N, C: chain ends.

Legend:
[1] = test system: psychiatric disease model mice; details: NON-PATENT DOCUMENT 2; cited from earlier work
[2] = test system: MDA-MB-231 breast cancer cells stably expressing VIPR2-EGFP; experiment: Transwell migration test with KS-133; assay type: cell-based
Protocol: (§1) In addition, the measurement was performed according to the method described above (Asano et al. 2012, Mol. Cell Biol. 32, 3242-3252) using a Boyden chamber. To each well, 600 μL of a serum-free culture solution containing 200 nM VIP was added. Cells (1×10^4 cells) were suspended in 100 μL of a serum-free culture solution and added to the insert. The cells were allowed to migrate for 30 or 48 hours at 37° C. Non-mobile cells adhering to the upper surface of the membrane were removed, and mobile cells adhering to the lower surface were fixed with 4% paraformaldehyde and counted with a fluorescence microscope.
Using the transwell shown in FIG. 7, the effect of KS-133 on migration of MDA-MB-231 breast cancer cells stably expressing VIPR2-EGFP was examined. MDA-MB-231 cells stably expressing VIPR2-EGFP were suspended in serum-free medium containing KS-133 at each of the concentrations of 0 nM to 1000 nM (1×10^4 cells/100 μL). A serum-free medium 6 containing 200 nM VIP and KS-133 at each of the concentrations was added to each well in an amount of 600 μL, and an insert 3 having 3 μm pores 5 was immersed in the well. Then, the suspended cells 1 were added to the insert 3, and incubated under conditions of 37° C. and 5% CO2. After 48 hours, the cells were fixed, cells on the surface of the insert 3 were removed, and then fluorescence of EGFP of cells 2 that had moved to the rear surface in response to induction by VIP was detected with a fluorescence microscope. The number of the cells that had moved to the rear surface of the insert was graphed based on the fluorescence image.
FIG. 8A is a fluorescence micrograph showing migrated cells. FIG. 8B and Table 2 show the number of migrated cells when each concentration of KS-133 was added.

[3] = test system: MCF-7 cells overexpressing VIPR2-EGFP; experiment: Cell proliferation test with KS-133; assay type: cell-based; details: for Number of cells (mean value): 100 nM KS-133, 100 nM VIP, 2% FBS
Protocol: This effect was confirmed. The cell proliferation test was performed according to NON-PATENT DOCUMENT 3. MCF-7 cells overexpressing VIPR2-EGFP were seeded in a 35 mm culture dish at a density of 1×10^5 cells/dish for 6 hours, and the culture medium was replaced with a fresh medium containing 2% FBS, 100 nM VIP, and 0 nM or 100 nM KS-133 (day 0). Cells were observed under a BZ-X800 fluorescence microscope (Keyence, Kyoto, Japan) and the number of cells was counted every 24 hours for up to 4 days by trypan blue dye staining using a hemacytometer (timecourse experiment).

[4] = test system: phosphorylation of AKT in MDA-MB-231 cells stably expressing VIPR2-EGFP; experiment: Phosphorylation of AKT by VIP in the presence and absence of KS-133 (Western blotting); assay type: cell-based
Protocol: (§2) Western blotting was performed according to a previously described method (Asano et al. 2014, Biol. Open3, 463-474; Asano et al. 2019, Sci. Rep. 9, 12729).
Pathway by VIP in MDA-MB-231 Cells Stably Expressing VIPR2-EGFP>Phosphorylation of AKT by VIP in MDA-MB-231 cells stably expressing VIPR2-EGFP was evaluated in the presence and absence of KS-133.

[5] = test system: phosphorylation of AKT in MCF-7 cells; experiment: Phosphorylation of AKT on VIP stimulation (Western blotting); assay type: cell-based; details: MCF-7 cells starved 3 hours, 0 nM to 1000 nM VIP for 10 minutes
Protocol: as §2
To investigate whether VIP is involved in cell movement via the PI3K/PI(3,4,5)P3 pathway, phosphorylation of AKT, a downstream signal of the PI3K/PI(3,4,5)P3 pathway in cancer cells, was assessed by Western blotting. […] All experiments were independently performed at least three times, and similar data were obtained.

[6] = test system: MDA-MB-231 cells stably expressing EGFP or VIPR2-EGFP; experiment: Transwell chamber assay of VIP-induced movement; assay type: cell-based; details: 200 nM VIP; 30 hours
Protocol: as §1
Cells were suspended in serum-free media (1×10^4 cells/[…]). A serum-free medium 6 containing 200 nM VIP was added to each well in an amount of 600 μL, and an insert 3 having 3 μm pores 5 was immersed in the well. […] After 30 hours, cells were fixed, cells on the surface of the insert 3 were removed, and then fluorescence of EGFP of cells 2 that had moved to the rear surface in response to VIP was detected with a fluorescence microscope. The number of the cells that had moved to the rear surface of the insert was graphed based on the fluorescence image. […] VIP (200 nM) was added to the well, the cells were added to the insert and incubated at 37° C. for 30 hours, and cells that had moved to the rear side of the insert were quantified and shown graphically.

[7] = test system: MDA-MB-231 cells stably expressing EGFP or VIPR2-EGFP; experiment: WAVE2-rich lamellipodia area after VIP stimulation; assay type: cell-based; details: 100 nM VIP; 30 minutes
Protocol: MDA-MB-231 cells (2×10^5 cells) stably expressing EGFP or VIPR2-EGFP were seeded on collagen-coated cover glass and incubated under conditions of 37° C. and 5% CO2. After 24 hours, the cells were washed with serum-free medium, and fresh serum-free medium was added to incubate the cells (under conditions of 37° C. and 5% CO2). After 3 hours, the medium was replaced with serum-free medium containing 100 nM VIP, and incubation for 30 minutes was performed. The cells were fixed with 4% paraformaldehyde, and immunostained using an anti-WAVE2 antibody. The surface area of a WAVE2-rich region immediately below the cell membrane was measured from a fluorescently-stained image of the same and graphed.
Data are shown as mean±SD. **: p<0.01, ***: p<0.001, between indicated groups (Kruskal-Wallis test and Dunn's multiple comparison test). “n.s.” indicates not statistically significant. […] The MDA-MB-231 cells stably expressing VIPR2-EGFP had more pronounced area expansion of lamellipodia compared to the control MDA-MB-231 cells expressing EGFP.

Row | Substance | cognitive decline [1] | VIP-induced cell migration ([2]; 200 nM VIP, KS-133 0 nM to 1000 nM, 48 hours) | Mean cell count (migrated cells) ([2]; KS-133 30 nM, 200 nM VIP, 48 hours) | Mean cell count (migrated cells) ([2]; KS-133 100 nM, 200 nM VIP, 48 hours) | Mean cell count (migrated cells) ([2]; KS-133 300 nM, 200 nM VIP, 48 hours) | Mean cell count (migrated cells) ([2]; KS-133 1000 nM, 200 nM VIP, 48 hours) | KS-133 concentration showing a significant difference in migration compared to the absence of KS-133 ([2]; Kruskal-Wallis test and Dunn's multiple comparison test) | Number of cells (mean value) ([3]; Day 0) | Number of cells (mean value) ([3]; Day 1) | Number of cells (mean value) ([3]; Day 2) | Number of cells (mean value) ([3]; Day 3) | Number of cells (mean value) ([3]; Day 4) | cell proliferation ([3]; MCF-7 cells overexpressing VIPR2, addition of KS-133) | expression of AKT [4] | phosphorylation of AKT induced by VIP ([4]; presence vs absence of KS-133) | phosphorylation of AKT [5] | number of cells that had moved to the back side of the insert [6] | WAVE2-rich area of lamellipodia [7]
1 | Ac-c[Cys^1-Pro^2-Pro^3-Tyr^4-Leu^5-Pro^6-c(Lys^7-Tyr^8-Leu^9-Cys^10]-Asp^11)-Leu^12-Ile^13-NH2 (Ac-CPPYLPKYLCDLI-NH2; disulfide 1-10; lactam 7-11; SMILES CC[C@H](C)[C@H](NC(=O)[C@H](CC(C)C)NC(=O)[C@@H]1CC(=O)NCCCC[C@@H]2NC(=O)[C@@H]3CCCN3C(=O)[C@H](CC(C)C)NC(=O)[C@H](Cc3ccc(O)cc3)NC(=O)[C@@H]3CCCN3C(=O)[C@@H]3CCCN3C(=O)[C@@H](NC(C)=O)CSSC[C@H](NC(=O)[C@H](CC(C)C)NC(=O)[C@H](Cc3ccc(O)cc3)NC2=O)C(=O)N1)C(N)=O) [KS-133] | suppress cognitive decline | suppressed | 4.35 Cells/mm^2 | 2.08 Cells/mm^2 | 1.39 Cells/mm^2 | 0.78 Cells/mm^2 | ≥ 100 nM | 1.0 × 10^5 | 0.85 × 10^5 | 0.65 × 10^5 | 0.45 × 10^5 | 0.2 × 10^5 | significantly suppressed from Day 2 of culture or later | did not affect the expression of AKT | strongly suppressed phosphorylation of AKT induced by VIP in an addition concentration-dependent manner | – | – | –
2 | Vasoactive intestinal peptide [VIP] | – | – | – | – | – | – | – | – | – | – | – | – | – | – | – | phosphorylated in a VIP addition concentration-dependent manner | increased | expanded the WAVE2-rich area of lamellipodia
